Test results: patent publication US8809341B2, “2,4-pyrimidinediamine compounds and uses as anti-proliferative agents” (Rigel Pharmaceuticals, Inc., priority 2003, dated 2014)

Tests used:
A549 cells = experiment: in vitro antiproliferation assay, A549 (lung); format: cell-based
Description: (§1) The IC50 values of various compounds against a various different tumor cell lines were determined using standard in vitro antiproliferation assays. The tumor cell lines tested were as follows: A549 (lung); H1299 (lung), ACHN (kidney/p53 wt), CAKI (renal cell carcinoma), NCI-H460 (lung); HCT116 (colon/p53w0; HELA (cervix/p53 wt), HUH7 (liver/p53 wt), HUVEC (primary endothelial), LNCAP (prostate), HT-29 (colon); MCF-7 (breast); MCF-7 (breast/ER positive), MDA MB435S (breast); MDA MB231 (breast/ER negative), DU145 (prostate); BxPC-3 (pancreatic); SKOV-3 (ovarian); HepG2 (hepatic), NDHF primary normal human dermal fibroblast), SKMEL28 (breast/p53mut), SKMEL5 (breast/p53 wt), U20S (bone) and PC3 (prostate). […] A blank indicates the specified compound was not tested against the specified cell line.

H1299 cells = experiment: in vitro antiproliferation assay, H1299 (lung); format: cell-based
Description: as §1

[1] = IC50 class against A549 (lung) tumor cells
[2] = IC50 class against H1299 (lung) tumor cells
[3] = Homo sapiens, IC50 class against A549 (lung) tumor cells
[4] = Homo sapiens, NCI-H1299, IC50 class against H1299 (lung) tumor cells
[5] = in vitro antiproliferation, A549 (lung) cells, Table 4, compounds with no designated stereochemistry tested as racemate
[6] = in vitro antiproliferation, H1299 (lung) cells, Table 4, compounds with no designated stereochemistry tested as racemate
[7] = Table 5, in vitro antiproliferation, A549 (lung) cells
[8] = Table 5, in vitro antiproliferation, H1299 (lung) cells

SMILES | IC50 (A549 cells; [1]) | IC50 (H1299 cells; [2]) | IC50 (A549 cells; [5]) | IC50 (H1299 cells; [6]) | other results
CN1CCN(c2ccc(Nc3ncc(F)c(NC4CC(C)(C)N(C)C(C)(C)C4)n3)cc2C(F)(F)F)CC1 [compound 182] | ≤ 20 µM | ≤ 20 µM |  |  | 
CCN1CCN(c2ccc(Nc3ncc(F)c(NC4CC(C)(C)N(C)C(C)(C)C4)n3)cn2)CC1 [compound 183] | ≤ 20 µM | ≤ 20 µM |  |  | 
Cc1cc(Nc2ncc(F)c(NC3CC(C)(C)N(C)C(C)(C)C3)n2)cnc1N1CCN(C)CC1 [compound 184] | ≤ 20 µM | ≤ 20 µM |  |  | 
CCOC(=O)N1CCC(Nc2nc(Nc3ccc(N4CCN(C)CC4)cc3)ncc2F)CC1 [compound 185] | ≤ 20 µM | ≤ 20 µM |  |  | 
CCOC(=O)N1CCC(Nc2nc(Nc3cccc(N4CCN(C)CC4)c3)ncc2F)CC1 [compound 186] | ≤ 20 µM | ≤ 20 µM |  |  | 
CCOC(=O)N1CCC(Nc2nc(Nc3ccc(N4CCN(C)CC4)c(Cl)c3)ncc2F)CC1 [compound 187] | ≤ 20 µM | ≤ 20 µM |  |  | 
CCOC(=O)N1CCC(Nc2nc(Nc3ccc(N4CCN(C)CC4)c(C)c3)ncc2F)CC1 [compound 188] | ≤ 20 µM | ≤ 20 µM |  |  | 
CCOC(=O)N1CCC(Nc2nc(Nc3ccc(N4CCN(C)CC4)c(C(F)(F)F)c3)ncc2F)CC1 [compound 189] | ≤ 20 µM | ≤ 20 µM |  |  | 
CCOC(=O)N1CCC(Nc2nc(Nc3ccc(N4CCN(C)CC4)nc3)ncc2F)CC1 [compound 190] | ≤ 20 µM | ≤ 20 µM |  |  | 
CC(=O)N1CCN(c2cccc(Nc3ncc(F)c(Nc4cc(C(C)(C)C)[nH]n4)n3)c2)CC1 [compound 200] |  |  |  |  | IC50 (A549 cells; [3]): ≤ 20 µM; IC50 (H1299 cells; [4]): ≤ 20 µM
CCOC(=O)N1CCN(c2cccc(Nc3ncc(F)c(Nc4cc(C(C)(C)C)[nH]n4)n3)c2)CC1 [compound 201] |  |  |  |  | IC50 (A549 cells; [3]): ≤ 20 µM; IC50 (H1299 cells; [4]): ≤ 20 µM
CC(=O)N1CCN(c2ccc(Nc3ncc(F)c(Nc4cc(C(C)(C)C)[nH]n4)n3)cc2)CC1 [compound 202] |  |  |  |  | IC50 (A549 cells; [3]): ≤ 20 µM; IC50 (H1299 cells; [4]): ≤ 20 µM
COC(=O)N1CCN(c2ccc(Nc3ncc(F)c(Nc4cc(C(C)(C)C)[nH]n4)n3)cc2)CC1 [compound 203] |  |  |  |  | IC50 (A549 cells; [3]): ≤ 20 µM; IC50 (H1299 cells; [4]): ≤ 20 µM
CN1CCN(c2ccc(Nc3ncc(F)c(Nc4cc(C(C)(C)C)[nH]n4)n3)cc2)CC1 [compound 204] |  |  |  |  | IC50 (A549 cells; [3]): ≤ 20 µM; IC50 (H1299 cells; [4]): ≤ 20 µM
CC(=O)N1CCN(c2cccc(Nc3ncc(F)c(Nc4cc(C5CC5)[nH]n4)n3)c2)CC1 [compound 205] |  |  |  |  | IC50 (A549 cells; [3]): ≤ 20 µM; IC50 (H1299 cells; [4]): ≤ 20 µM
CN1CCN(c2ccc(Nc3ncc(F)c(Nc4cc(C5CC5)[nH]n4)n3)cc2)CC1 [compound 206] |  |  |  |  | IC50 (A549 cells; [3]): ≤ 20 µM; IC50 (H1299 cells; [4]): ≤ 20 µM
Fc1cnc(Nc2cccc(N3CCOCC3)c2)nc1Nc1cc(C2CC2)[nH]n1 [compound 207] |  |  |  |  | IC50 (A549 cells; [3]): ≤ 20 µM; IC50 (H1299 cells; [4]): ≤ 20 µM
CCOC(=O)N1CCN(c2ccc(Nc3ncc(F)c(Nc4cc(C5CC5)[nH]n4)n3)cc2)CC1 [compound 209] |  |  |  |  | IC50 (A549 cells; [3]): ≤ 20 µM; IC50 (H1299 cells; [4]): ≤ 20 µM
Fc1cnc(Nc2ccc(N3CCOCC3)cc2)nc1Nc1cc(C2CC2)[nH]n1 [compound 210] |  |  |  |  | IC50 (A549 cells; [3]): ≤ 20 µM; IC50 (H1299 cells; [4]): > 20 µM
CN1CCN(c2ccc(Nc3ncc(F)c(Nc4cc(C5CC5)[nH]n4)n3)cc2Cl)CC1 [compound 212] |  |  |  |  | IC50 (A549 cells; [3]): ≤ 20 µM; IC50 (H1299 cells; [4]): ≤ 20 µM

SMILES | IC50 (A549 cells; [1]) | IC50 (H1299 cells; [2]) | IC50 (A549 cells; [5]) | IC50 (H1299 cells; [6]) | other results
Cc1cc(Nc2ncc(F)c(Nc3cc(C4CC4)[nH]n3)n2)ccc1N1CCN(C)CC1 [compound 213] |  |  |  |  | IC50 (A549 cells; [3]): ≤ 20 µM; IC50 (H1299 cells; [4]): ≤ 20 µM
CN1CCN(c2ccc(Nc3ncc(F)c(Nc4cc(C5CC5)[nH]n4)n3)cc2C(F)(F)F)CC1 [compound 214] |  |  |  |  | IC50 (A549 cells; [3]): ≤ 20 µM; IC50 (H1299 cells; [4]): ≤ 20 µM
CC(C)Nc1nc(Nc2ccc(N3CCN(C)CC3)cc2)ncc1F [compound 215] | ≤ 20 µM | ≤ 20 µM |  |  | 
CC(C)Nc1nc(Nc2ccc(N3CCN(C)CC3)c(Cl)c2)ncc1F [compound 216] | ≤ 20 µM | ≤ 20 µM |  |  | 
Cc1cc(Nc2ncc(F)c(NC(C)C)n2)ccc1N1CCN(C)CC1 [compound 217] | ≤ 20 µM | ≤ 20 µM |  |  | 
CC(C)Nc1nc(Nc2ccc(N3CCN(C)CC3)c(C(F)(F)F)c2)ncc1F [compound 218] | ≤ 20 µM | ≤ 20 µM |  |  | 
CC(C)Nc1nc(Nc2cccc(N3CCN(C)CC3)c2)ncc1F [compound 219] | ≤ 20 µM | ≤ 20 µM |  |  | 
CN1CCN(c2ccc(Nc3ncc(F)c(NC(C)(C)C)n3)cc2)CC1 [compound 220] | ≤ 20 µM | ≤ 20 µM |  |  | 
CN1CCN(c2cccc(Nc3ncc(F)c(NC(C)(C)C)n3)c2)CC1 [compound 221] | ≤ 20 µM | ≤ 20 µM |  |  | 
CN1CCN(c2ccc(Nc3ncc(F)c(NC(C)(C)C)n3)cc2Cl)CC1 [compound 222] | ≤ 20 µM | ≤ 20 µM |  |  | 
Cc1cc(Nc2ncc(F)c(NC(C)(C)C)n2)ccc1N1CCN(C)CC1 [compound 223] | ≤ 20 µM | ≤ 20 µM |  |  | 
CN1CCN(c2ccc(Nc3ncc(F)c(NC(C)(C)C)n3)cc2C(F)(F)F)CC1 [compound 224] | ≤ 20 µM | ≤ 20 µM |  |  | 
CCN1CCN(c2ccc(Nc3ncc(F)c(NC(C)C)n3)cn2)CC1 [compound 225] | ≤ 20 µM | ≤ 20 µM |  |  | 
CCN1CCN(c2ccc(Nc3ncc(F)c(NC(C)(C)C)n3)cn2)CC1 [compound 226] | ≤ 20 µM | ≤ 20 µM |  |  | 
Cc1cc(Nc2ncc(F)c(NC(C)C)n2)cnc1N1CCN(C)CC1 [compound 227] | ≤ 20 µM | ≤ 20 µM |  |  | 
Cc1cc(C)cc(Nc2ncc(F)c(Nc3ccc4c(c3)NC(=O)C(C)O4)n2)c1 (stereo not drawn) [compound 229] |  |  | ≤ 20 µM | ≤ 20 µM | 
O=C1COc2ccc(Nc3nc(Nc4cccc(-c5ncco5)c4)ncc3F)cc2N1 [compound 236] |  |  | ≤ 20 µM | ≤ 20 µM | 
O=C1COc2ccc(Nc3nc(Nc4cccc(-c5cnco5)c4)ncc3F)cc2N1 [compound 239] |  |  | > 20 µM | ≤ 20 µM | 
C[C@@H]1Oc2ccc(Nc3nc(Nc4cccc(-c5cnco5)c4)ncc3F)cc2NC1=O [compound 240] |  |  | ≤ 20 µM | > 20 µM | 
CN1C(=O)COc2ccc(Nc3nc(Nc4cccc(O)c4)ncc3F)cc21 [compound 255] |  |  | ≤ 20 µM | ≤ 20 µM | 

SMILES | IC50 (A549 cells; [1]) | IC50 (H1299 cells; [2]) | IC50 (A549 cells; [5]) | IC50 (H1299 cells; [6]) | other results
COc1cc(Nc2ncc(F)c(Nc3ccc4c(c3)NC(=O)C(C)(C)S4(=O)=O)n2)cc(OC)c1 [compound 263] |  |  | > 20 µM | > 20 µM | 
Cc1cc(C)cc(Nc2ncc(F)c(Nc3ccc4c(c3)NC(=O)C(C)(C)S4(=O)=O)n2)c1 [compound 264] |  |  | > 20 µM | ≤ 20 µM | 
COc1cc(Nc2ncc(F)c(Nc3ccc4c(c3)NC(=O)C(C)(C)S4(=O)=O)n2)cc(OC)c1OC [compound 265] |  |  | ≤ 20 µM | ≤ 20 µM | 
COc1ccc(Nc2ncc(F)c(Nc3ccc4c(c3)NC(=O)C(C)(C)S4(=O)=O)n2)cc1F [compound 287] |  |  | ≤ 20 µM | ≤ 20 µM | 
COc1ccc(Nc2ncc(F)c(Nc3ccc4c(c3)NC(=O)C(C)(C)S4)n2)cc1F [compound 289] |  |  | ≤ 20 µM | ≤ 20 µM | 
COc1ccc(Nc2ncc(F)c(Nc3ccc4c(c3)NC(=O)CS4)n2)cc1F [compound 290] |  |  | ≤ 20 µM | ≤ 20 µM | 
CNC(=O)COc1cccc(Nc2ncc(F)c(Nc3ccc4c(c3)N(C)C(=O)CO4)n2)c1 [compound 299] |  |  | ≤ 20 µM | > 20 µM | 
CC1(C)Oc2ccc(Nc3nc(Nc4cc(CO)cc(CO)c4)ncc3F)cc2NC1=O [compound 320] |  |  | ≤ 20 µM | ≤ 20 µM | 
COc1cc(Cl)cc(Nc2ncc(F)c(Nc3ccc4c(c3)NC(=O)C(C)(C)O4)n2)c1 [compound 321] |  |  | ≤ 20 µM | ≤ 20 µM | 
COc1cc(Nc2ncc(F)c(N(C)c3ccc4c(c3)NC(=O)C(C)(C)O4)n2)cc(OC)c1 [compound 323] |  |  | ≤ 20 µM | ≤ 20 µM | 
Cc1cc(C)cc(Nc2ncc(F)c(N(C)c3ccc4c(c3)N(C)C(=O)C(C)(C)O4)n2)c1 [compound 324] |  |  | ≤ 20 µM | > 20 µM | 
COc1ccc(Nc2ncc(F)c(N(C)c3ccc4c(c3)N(C)C(=O)C(C)(C)O4)n2)cc1Cl [compound 325] |  |  | ≤ 20 µM | ≤ 20 µM | 
COc1cc(Nc2ncc(F)c(N(C)c3ccc4c(c3)N(C)C(=O)C(C)(C)O4)n2)cc(OC)c1 [compound 326] |  |  | ≤ 20 µM | ≤ 20 µM | 
COc1ccc(Nc2ncc(F)c(N(C)c3ccc4c(c3)NC(=O)C(C)(C)O4)n2)cc1Cl [compound 327] |  |  | ≤ 20 µM | ≤ 20 µM | 
CCOC(=O)COc1cccc(Nc2ncc(F)c(Nc3ccc4c(c3)OCCO4)n2)c1 [compound 491] |  |  |  |  | IC50 (A549 cells; [7]): > 20 µM; IC50 (H1299 cells; [8]): ≤ 20 µM
Fc1cnc(Nc2cccc(Cl)c2)nc1Nc1ccc2c(c1)OC(F)(F)O2 [compound 513] |  |  |  |  | IC50 (A549 cells; [7]): ≤ 20 µM; IC50 (H1299 cells; [8]): ≤ 20 µM
Fc1cnc(Nc2cccc(-c3ncco3)c2)nc1Nc1ccc2c(c1)OCCO2 [compound 515] |  |  |  |  | IC50 (A549 cells; [7]): ≤ 20 µM; IC50 (H1299 cells; [8]): ≤ 20 µM
Cc1cc(O)cc(Nc2ncc(F)c(Nc3ccc4c(c3)OCCO4)n2)c1 [compound 521] |  |  |  |  | IC50 (A549 cells; [7]): ≤ 20 µM; IC50 (H1299 cells; [8]): > 20 µM
Fc1cc(Nc2ncc(F)c(Nc3ccc4c(c3)OCCO4)n2)cc(C(F)(F)F)c1 [compound 522] |  |  |  |  | IC50 (A549 cells; [7]): > 20 µM; IC50 (H1299 cells; [8]): > 20 µM
Fc1cc(F)cc(Nc2ncc(F)c(Nc3ccc4c(c3)OCCO4)n2)c1 [compound 524] |  |  |  |  | IC50 (A549 cells; [7]): > 20 µM; IC50 (H1299 cells; [8]): > 20 µM
